This test addresses VP35 (EBOV VP35) (Ebola virus - Mayinga, Zaire, 1976, UniProt Q05127). Nature of the test: biochemical. Format: binding.

Sequence of VP35 (EBOV VP35) (Q05127 whole entry, looked up): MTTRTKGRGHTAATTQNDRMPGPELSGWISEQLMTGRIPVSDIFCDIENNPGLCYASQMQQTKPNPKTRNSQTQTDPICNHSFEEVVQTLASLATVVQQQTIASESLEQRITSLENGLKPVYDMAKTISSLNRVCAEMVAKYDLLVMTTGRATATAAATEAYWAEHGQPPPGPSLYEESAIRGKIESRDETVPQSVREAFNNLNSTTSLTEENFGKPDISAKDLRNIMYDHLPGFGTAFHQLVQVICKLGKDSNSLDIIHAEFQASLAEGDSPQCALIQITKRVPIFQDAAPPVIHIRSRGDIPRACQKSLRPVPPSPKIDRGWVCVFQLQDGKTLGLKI

The term Kd denotes the concentration at which binding is half-saturated. Read a high Kd as a looser complex. In turn, `Cc1oc(C)c(S(N)(=O)=O)c1C(=O)O` [SFC, 2,5-Dimethyl-4-sulfamoyl furan-3-carboxylic acid] yielded a Kd of around 375 nM.

The values are drawn from paper PMC10942258 (PLOS Biology, 2024).
